Measured values reported in PubChem BioAssay AID1645848.
Converted amounts (≈) assume the structure as drawn.

Conditions: buffer; pH 7.4; 6.0 h; 150.0 µM

SMILES	solubility kinetic
Cn1cnc(S(=O)(=O)Nc2cnccc2C(=O)Nc2nc(-c3ccccc3)cs2)c1	> 65 µg/mL
Nc1nc2c(s1)C(c1cccc(Cl)c1Cl)CC(=O)N2 (centres undefined)	< 1 µg/mL
Cn1cnc2c(F)c(Nc3ccc(Br)cc3Cl)c(C(=O)NOCCO)cc21	> 45 µg/mL
CCc1ccc(NC(=O)c2[nH]c(C)c(C(C)=O)c2C)cc1[S+](=O)([O-])Nc1ccccc1C#N	40.3 µg/mL (≈ 86.8 µM)
CCOc1ccccc1C(=O)Nc1ncccc1C(=O)Nc1cccc(S(=O)(=O)C(F)(F)F)c1	< 1 µg/mL
COc1cccc(CNCCSc2nnnn2C)c1OCc1ccc(Cl)cc1Cl	16.6 µg/mL (≈ 36.4 µM)
[2H]C([2H])(Nc1nc(-c2ccccc2C([2H])(C([2H])([2H])[2H])C([2H])([2H])[2H])ncc1C)c1ccc(-n2ccnn2)cc1	13.5 µg/mL (≈ 34.3 µM)
Oc1ccc(-c2nc(C3CC3)nc3c2CCN(Cc2ccc(F)cc2)CC3)cc1	8.86 µg/mL (≈ 22.8 µM)
COc1c(NS(=O)(=O)c2ccc(C)cc2)cccc1C(=O)Nc1nc(-c2ccccc2)cs1	< 1 µg/mL
Cc1c(C(=O)NN2CCCCC2)nn(-c2ccc(Cl)cc2Cl)c1-c1ccc(Cl)cc1	< 1 µg/mL
Cc1ccc2oc3c(c(=O)c2c1)C(c1ccc(O)cc1)N(CCCN(C)C)C3=O (centres undefined)	> 58 µg/mL
O=C(c1cccc(F)c1)N1CCC2(CCN(Cc3cc(C(F)(F)F)cc(C(F)(F)F)c3)CC2)CC1	3.62 µg/mL (≈ 7.2 µM)
CN(C)c1ccc(CN2CCNc3cc(Nc4ccccc4)ncc3C2)cc1	> 83 µg/mL
COc1cc(Cl)c(C)cc1NS(=O)(=O)c1c(C)nc2sccn2c1=O	< 1 µg/mL
CCc1ccc(C2C(C(=O)Nc3ccccc3OC)=C(C)Nc3c(C(=O)Nc4ccc(C)cc4)cnn32)cc1 (centres undefined)	5.74 µg/mL (≈ 11 µM)
COc1ccc(-c2cc(C)nc3c(-c4ccc(OC)c(OC)c4)c(C)nn23)cc1	< 1 µg/mL
COc1ccc(Nc2cc3c(nc2OC)nc(CCc2ccccc2)n3C)cn1	22.4 µg/mL (≈ 57.5 µM)
c1ccc2c(Nc3ccon3)nc(-c3ccncc3)nc2c1	< 1 µg/mL
CN([C@@H](Cc1ccc(OS(=O)(=O)c2cccc3cnccc23)cc1)C(=O)N1CCN(c2ccccc2)CC1)S(=O)(=O)c1cccc2cnccc12	1.32 µg/mL (≈ 1.83 µM)
Cc1c(O)ccc2c1OC(C)(C)CC2	8.29 µg/mL (≈ 43.1 µM)
COc1ccccc1CNc1ccc(N2CCCCC2)cc1	12.9 µg/mL (≈ 43.5 µM)
Cc1cc(C)nc(NC(=S)N2CCN(c3ccc(C(F)(F)F)cc3Cl)CC2)c1	3.08 µg/mL (≈ 7.19 µM)
CC(C)Oc1cccc(C2CC(=O)Nc3cc4c(cc32)OCO4)c1 (centres undefined)	1.53 µg/mL (≈ 4.7 µM)
O=c1cc(/C=C/c2c(F)cccc2Cl)[nH]c2ccccc12	1.73 µg/mL (≈ 5.77 µM)
O=c1[nH]cnc2nc[nH]c12	8.8 µg/mL (≈ 64.7 µM)

SMILES	solubility kinetic
CC(NCc1ccc2c(c1)nc(NC(=O)c1ccc(-c3cn[nH]c3)s1)n2CC(C)(C)O)C(C)(C)C (centres undefined)	> 73 µg/mL
Cc1ccc(S(=O)(=O)Nc2ccccc2C(=O)Nc2cnc(-c3ccccc3)cn2)cc1	< 1 µg/mL
CCC(=O)NC(c1cccs1)c1cc([N+](=O)[O-])c2cccnc2c1O (centres undefined)	> 53 µg/mL
Cc1ccc(-c2csc(N3CCC(C(N)=O)CC3)n2)cc1	32.9 µg/mL (≈ 109 µM)
Cc1ccccc1C(=O)N1CCc2cc(-c3nc(NC(=O)CC4CCCCC4)sc3C)ccc21	< 1 µg/mL
CN1CCN(C(c2ccccc2)c2ccccc2)CC1	> 39 µg/mL
CCCCNc1oc(-c2cccc3ccccc23)nc1C#N	< 1 µg/mL
Cc1ccccc1C(=O)N1CCc2cc(-c3nc(NC(=O)Cc4ccc5c(c4)OCCO5)sc3C)ccc21	< 1 µg/mL
Fc1ccc(-c2ccc(Nc3nc(-c4ccncc4)nc4ccccc34)cc2F)c(Cl)c1	< 1 µg/mL
Cc1cnc(-c2ccccc2C(F)F)nc1NCc1ccc(-n2ccnn2)cc1	< 1 µg/mL
c1ccc2c(NC3CCCCC3)nc(-c3ccncc3)nc2c1	< 1 µg/mL
CCOc1ccc(CNC(=O)CCCn2nc(C)c3c(C)n(-c4ccc(C)cc4)nc3c2=O)cc1	1.48 µg/mL (≈ 3.12 µM)
Cc1cccc(Nc2nc(NCc3ccco3)c3ccccc3n2)c1.Cl	< 1 µg/mL
Cn1c2cc(S(C)=O)sc2c2cnn(Cc3cccc(N)c3)c(=O)c21 (centres undefined)	> 55 µg/mL
O=c1[nH]nc(Sc2ncc([N+](=O)[O-])s2)n1-c1ccc2c(c1)OCCO2	28.7 µg/mL (≈ 75.6 µM)
CC(=O)c1c(C)[nH]c(C(=O)Nc2ccc(C)c(S(=O)(=O)Nc3ccc(Br)cc3)c2)c1C	< 1 µg/mL
CC1=C[C@@H](CNC(C)C)[C@H](C(C)C)C[C@H]1Cc1nnc(-c2ccncc2)o1	> 54 µg/mL
S=c1[nH]c2ccccc2n1CCc1ccccc1	5.04 µg/mL (≈ 19.8 µM)
CN(C(=O)CNC(=O)c1ccccc1OCC(=O)Nc1ccc(I)cc1)c1ccccc1	1.28 µg/mL (≈ 2.35 µM)
CCCN(CCC)CCc1cccc2c1CC(=O)N2	23.2 µg/mL (≈ 88.9 µM)
Fc1ccc(CNc2cc3c(cn2)CN(Cc2ccncc2)CCN3)cc1	36.6 µg/mL (≈ 101 µM)
Cc1ccc(-n2ncc(C(=O)NCCN3CCC(Cc4ccccc4)CC3)c2C2CCN(C(=O)OC(C)(C)C)CC2)cc1	23.2 µg/mL (≈ 39.6 µM)
Clc1cccc(-c2ccc(-c3nnc(CCCc4ccc5cccnc5n4)o3)cc2)c1	< 1 µg/mL
CN(C)c1ccc(-c2csc(N3CCC(C(N)=O)CC3)n2)cc1	3.78 µg/mL (≈ 11.4 µM)
COc1ccccc1C(=O)N1CCc2cc(-c3nc(NC(=O)Cc4ccc5c(c4)OCO5)sc3C)ccc21	< 1 µg/mL

SMILES	solubility kinetic
OCc1cccc(-c2cc(-c3cccnc3)c3cncn3c2)c1	18.5 µg/mL (≈ 61.4 µM)
Cc1ccc(S(=O)(=O)Nc2cnccc2C(=O)Nc2nc(-c3ccncc3)cs2)cc1	> 67 µg/mL
CC(C(O)c1ccc(O)cc1)N1CCC(Cc2ccccc2)CC1 (centres undefined)	> 48 µg/mL
CC(=O)c1cccc(-c2csc3ncnc(Sc4nnnn4C)c23)c1	14.1 µg/mL (≈ 38.2 µM)
COc1ccc(CN2C(=O)[C@@H]3C[C@@H](CN3Cc3cccs3)Oc3ccccc32)cc1	2.52 µg/mL (≈ 5.99 µM)
COc1ccc2[nH]c3c(c2c1)CCNC31CCN(S(=O)(=O)c2c(C)noc2C)CC1	7.38 µg/mL (≈ 17.1 µM)
Cc1ccc(S(=O)(=O)Nc2ccncc2C(=O)Nc2nc(-c3ccccc3)cs2)cc1	< 1 µg/mL
COc1ccc(Nc2cnc3ccc(-c4ccc(OC)c(OC)c4)nn23)cc1	< 1 µg/mL
Cc1cc(C)nc(NC(=S)N2CCN(c3ccc4nsnc4c3)CC2)c1	27.7 µg/mL (≈ 72.1 µM)
O=C(Nc1ccccc1C(=O)Nc1cccc(C(F)(F)F)c1)c1ccccc1	< 1 µg/mL
CCc1cccc(NC(=O)C(Cc2ccccc2)NS(=O)(=O)c2cccs2)c1 (centres undefined)	< 1 µg/mL
CN(C)C(=O)c1cc2cnc(Nc3ccc(N4CCNCC4)cn3)nc2n1C1CCCC1	> 64 µg/mL
Fc1cc(-c2nc(Nc3ccc(F)c(F)c3)c3ccccc3n2)ccn1	< 1 µg/mL
O=c1[nH]c(N2CCOCC2)nc2c1CCN(Cc1cc(Cl)ccc1F)CC2	28.6 µg/mL (≈ 72.7 µM)
Oc1ccc2[nH]cc(CCCCN3CC=C(c4ccccc4)CC3)c2c1	42.4 µg/mL (≈ 122 µM)
O=C(Nc1ncc(Cc2ccc(C(F)(F)F)cc2)s1)c1ccc(-c2cccnc2)o1	< 1 µg/mL
O=C1Nc2cc(Cl)ccc2/C1=C\c1cc(Cl)c(O)c(Cl)c1	5.95 µg/mL (≈ 17.5 µM)
CCOC(=O)CCNc1cc(N2CCc3ccccc3CC2)nc(-c2ccccn2)n1	8.45 µg/mL (≈ 20.2 µM)
COc1cccc(CNc2ccc(S(=O)(=O)Nc3nc(C)c(C)s3)cc2)c1O	1.83 µg/mL (≈ 4.35 µM)
COC[C@@H]1CN(C(=O)c2nn(C)c3ccccc23)C[C@H]1c1nc(C)no1	> 100 µg/mL
COc1cncc(Nc2ncc(-c3cccc(N(C)C)c3)c3c2OCC3)c1	< 1 µg/mL
Fc1ccc(CN2CCOC[C@H]2c2ncc(-c3ccc(Cl)s3)[nH]2)cc1	5.47 µg/mL (≈ 14.5 µM)
O=[S+]([O-])(Nc1ccc(C2CCNCC2)cc1)c1ccc(NCc2ccc(Br)cc2O)cc1	12.8 µg/mL (≈ 24.8 µM)
Cc1ccc(S(=O)(=O)Nc2ccc(F)cc2C(=O)Nc2nc(-c3ccccc3)cs2)cc1	< 1 µg/mL
O=C1C(SCCO)=C(SCCO)C(=O)c2ccccc21	> 31 µg/mL

SMILES	solubility kinetic
CC(=O)c1c(C)oc2ccc(N(C(=O)Oc3ccccc3)S(=O)(=O)c3ccccc3)cc12	< 1 µg/mL
Cc1cccc2c(C(=O)O)cc(-c3cccs3)nc12	> 40 µg/mL
Cn1cnc(-c2nccc3c(=O)[nH]c(OCCCC(F)(F)F)nc23)c1	> 52 µg/mL
Fc1ccc(Nc2nc(-n3ccnc3)nc3ccccc23)cc1F	< 1 µg/mL
O=c1[nH]c(N2CCOCC2)nc2c1CCN(Cc1ccc(Cl)cc1F)CC2	> 58 µg/mL
Cc1ccc(-c2cc(C(=O)Nc3ccc(S(N)(=O)=O)cc3)c3cccc(C)c3n2)cc1C	< 1 µg/mL
CCN(CC)CCCNC(=O)c1oc2c(c1C)-c1nn(Cc3ccc(Cl)cc3)cc1CC2	> 67 µg/mL
COc1cc([C@@H](CC(=O)O)c2ccc(C)c(CN3C[C@@H](C)Oc4ccccc4S3(=O)=O)c2)cc2nnn(C)c12	> 81 µg/mL
O=C([C@H](Cc1ccc(O[S+](=O)([O-])c2cccc3cnccc23)cc1)N[S+](=O)([O-])c1cccc2cnccc12)N1CCN(Cc2ccccc2)CC1	< 1 µg/mL
Cc1ccc(-c2cc(C(=O)Nc3ccc(-n4cncn4)cc3)c3ccccc3n2)cc1C	< 1 µg/mL
O=C(Nc1ccc(Cl)c(S(=O)(=O)N2CCOCC2)c1)c1ccccc1	< 1 µg/mL
Fc1cc(F)cc(Nc2nc(-c3ccncc3)nc3ccccc23)c1	2.59 µg/mL (≈ 7.75 µM)
O=C(NCCCn1ccnc1)c1nc(-c2ccccc2)cc2[nH]ccc12	> 77 µg/mL
CCCN1C(CC(C)C)=NS(=O)(=O)c2cc(NC(=O)c3ccco3)ccc21	< 1 µg/mL
COc1ccc(CNc2ccc(S(=O)(=O)Nc3nccs3)cc2)c(O)c1	45.4 µg/mL (≈ 116 µM)
COc1cccc(CNc2ccc(S(=O)(=O)Nc3ccccn3)cc2)c1O	8.36 µg/mL (≈ 21.7 µM)
CN(C)CCCN1c2ccc(O)cc2Sc2ccc(Cl)cc21	> 49 µg/mL
CCc1ccc2oc(NC3=NC(c4[nH]ncc4Cl)C4=C(CCCC4=O)N3)nc2c1 (centres undefined)	< 1 µg/mL
Cc1cc(NS(=O)(=O)c2ccc(NCCc3ccc(Cl)c(Cl)c3)cc2)no1	11.4 µg/mL (≈ 26.9 µM)
COc1cc(-c2cn(C)c(=O)c3cnccc23)c(OC)cc1CN(C)C	> 52 µg/mL
O=C(O)c1ccccc1C(=O)Nc1ccc(-c2ccccc2)cc1	> 47 µg/mL
O=[S+]([O-])(Nc1nccs1)c1ccc(NCc2cccc(Cl)c2)cc1	2.53 µg/mL (≈ 6.67 µM)
CCn1cc(C(=O)N2CCN(c3cccc(Cl)c3)CC2)c2cc(OC)c(OC)cc2c1=O	3.32 µg/mL (≈ 7.27 µM)
CCOC(=O)c1ccc(NC(=O)CSc2nc3c(cc2C#N)N2CCC3CC2)cc1	1.15 µg/mL (≈ 2.71 µM)
